# In ChEMBL document CHEMBL4673221, “Furanoflavones pongapin and lanceolatin B blocks the cell cycle and induce senescence in CYP1A1-overexpressing breast cancer cells” (Bioorg Med Chem, 2018):
# Columns and labels:
# [1] = target: T1, Cytochrome P450 2A6 (Homo sapiens, UniProt P11509); assay: Inhibition of human CYP2A6 expressed in Sacchrosomes by fluorescence based assay; type: ADME
# T1 sequence (P11509 whole entry): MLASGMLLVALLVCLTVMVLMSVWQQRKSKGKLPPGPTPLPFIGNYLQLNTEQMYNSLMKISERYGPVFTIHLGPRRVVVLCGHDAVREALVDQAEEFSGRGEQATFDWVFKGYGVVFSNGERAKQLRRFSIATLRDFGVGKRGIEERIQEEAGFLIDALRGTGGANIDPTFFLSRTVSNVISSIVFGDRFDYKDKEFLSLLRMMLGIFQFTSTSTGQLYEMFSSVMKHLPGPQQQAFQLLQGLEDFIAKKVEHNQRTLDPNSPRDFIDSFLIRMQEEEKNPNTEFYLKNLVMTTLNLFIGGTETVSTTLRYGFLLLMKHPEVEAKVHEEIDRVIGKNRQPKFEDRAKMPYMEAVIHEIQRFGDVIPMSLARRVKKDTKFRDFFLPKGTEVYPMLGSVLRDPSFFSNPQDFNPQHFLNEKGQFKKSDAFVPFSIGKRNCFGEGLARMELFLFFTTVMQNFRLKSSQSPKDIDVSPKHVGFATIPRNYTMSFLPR
# [2] = tested on: MCF7; assay: Induction of cell cycle arrest in human MCF7 over expressing CYP1A cells assessed as accumulation at G0/G1 phase incubated for 24 hrs by PI staining based flow cytometric analysis (Rvb =54.3 %); type: functional
# [3] = species: Homo sapiens; assay: Selectivity ratio IC50 for inhibition of human CYP1A2 expressed in sacchrosomes toIC50 for Inhibition of CYP1A1 expressed in sacchrosomes
# [4] = species: Homo sapiens; assay: Selectivity ratio IC50 for inhibition of human CYP1B1 expressed in sacchrosomes toIC50 for Inhibition of CYP1A1 expressed in sacchrosomes
SMILES,IC50 [1],Activity [2],Ratio IC50 [3],Ratio IC50 [4]
O=c1cc(-c2ccccc2)oc2c1ccc1occc12 [LANCEOLATIN B],> 20 µM,81%,,
COc1c(-c2ccc3c(c2)OCO3)oc2c(ccc3occc32)c1=O [PONGAPIN],> 20 µM,83.8%,13,52
